{"source": "patent EP3498273A1", "about": "“PHARMACEUTICAL COMPOSITION FOR MODULATING THE RESPONSE OF A GABA-A RECEPTOR” (Universität Wien, priority 2017, dated 2019)", "key": {"[1]": {"system": "male C57BL/6N mice", "test": "Seizure threshold upon pentylenetetrazole (PTZ) tail-vein infusion", "format": "in vivo", "settings": "intraperitoneal, 30 min before the test, n = 4, control 39.5 ± 0.8", "method": "Only male C57BL/6N mice (age 3-6 months) were used for determination of the seizure threshold. Intraperitoneal injection of control or compound-containing solutions was done 30 min before the test. Indicated doses in the results represent milligrams per kilogram body weight. Seizure threshold was determined by pentylenetetrazole (PTZ) tail-vein infusion on freely moving animals at a rate of 100 µl/min (10 mg/ml PTZ in saline, pH = 7.4). […] Animals were immediately killed by cervical displacement after onset of seizures. The seizure threshold dose was calculated from the infused dose in relation to body weight (mg/kg)."}, "[2]": {"system": "native GABAA receptors, primary cultures of dissociated hippocampal neurons", "test": "Whole-cell patch clamp on cultured hippocampal neurons (miniature IPSCs and tonic currents)", "format": "cell-based", "settings": "10 µM compound, holding potential -70 mV"}, "[3]": {"target": "GABAA receptors composed of α1β2γ2S subunits (Homo sapiens, UniProt P14867+P47870)", "sequence (P14867 28-456)": "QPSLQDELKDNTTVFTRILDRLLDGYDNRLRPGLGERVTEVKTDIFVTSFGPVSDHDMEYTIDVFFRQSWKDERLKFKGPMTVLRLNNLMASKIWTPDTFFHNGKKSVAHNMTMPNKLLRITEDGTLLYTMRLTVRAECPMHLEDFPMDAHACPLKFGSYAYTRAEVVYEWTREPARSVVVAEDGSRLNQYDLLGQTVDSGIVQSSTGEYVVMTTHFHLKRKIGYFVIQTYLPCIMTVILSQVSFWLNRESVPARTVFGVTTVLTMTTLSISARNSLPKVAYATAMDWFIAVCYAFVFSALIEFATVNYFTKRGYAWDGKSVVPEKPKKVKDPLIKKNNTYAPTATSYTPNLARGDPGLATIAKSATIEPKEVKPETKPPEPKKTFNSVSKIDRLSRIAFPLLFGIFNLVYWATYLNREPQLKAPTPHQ", "sequence (P47870 26-474 isoform P47870-1 limits assumed)": "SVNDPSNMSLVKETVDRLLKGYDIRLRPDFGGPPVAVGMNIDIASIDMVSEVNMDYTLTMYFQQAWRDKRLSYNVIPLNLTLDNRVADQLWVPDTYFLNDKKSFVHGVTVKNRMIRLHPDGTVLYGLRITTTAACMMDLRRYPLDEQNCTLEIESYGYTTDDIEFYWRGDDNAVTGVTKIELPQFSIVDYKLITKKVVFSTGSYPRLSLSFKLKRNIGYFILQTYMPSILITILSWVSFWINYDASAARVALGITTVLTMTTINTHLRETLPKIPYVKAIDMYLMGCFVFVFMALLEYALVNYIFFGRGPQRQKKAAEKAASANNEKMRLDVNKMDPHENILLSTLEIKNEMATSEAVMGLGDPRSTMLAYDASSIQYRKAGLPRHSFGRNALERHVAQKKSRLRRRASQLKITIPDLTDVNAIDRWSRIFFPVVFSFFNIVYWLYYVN", "sequence (P18507 40-467 isoform P18507-1 partner limits assumed)": "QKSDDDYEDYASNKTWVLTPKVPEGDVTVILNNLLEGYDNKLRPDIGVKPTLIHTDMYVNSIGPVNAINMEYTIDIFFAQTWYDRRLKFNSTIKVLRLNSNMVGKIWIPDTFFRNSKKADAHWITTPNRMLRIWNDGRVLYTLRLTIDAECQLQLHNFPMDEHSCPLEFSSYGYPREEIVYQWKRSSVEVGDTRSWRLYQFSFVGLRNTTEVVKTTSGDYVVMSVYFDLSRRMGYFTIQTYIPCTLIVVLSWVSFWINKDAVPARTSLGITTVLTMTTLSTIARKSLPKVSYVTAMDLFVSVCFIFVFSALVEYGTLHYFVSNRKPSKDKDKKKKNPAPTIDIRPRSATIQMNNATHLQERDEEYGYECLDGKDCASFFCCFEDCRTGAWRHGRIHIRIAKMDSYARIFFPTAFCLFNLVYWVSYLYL", "test": "Two-microelectrode voltage clamp: IGABA enhancement in Xenopus laevis oocytes"}, "[4]": {"target": "GABAA receptors composed of α1β1γ2S subunits (Homo sapiens, UniProt P14867+P18505)", "sequence (P14867 28-456)": "as the sequence (P14867 28-456) above", "sequence (P18505 26-474)": "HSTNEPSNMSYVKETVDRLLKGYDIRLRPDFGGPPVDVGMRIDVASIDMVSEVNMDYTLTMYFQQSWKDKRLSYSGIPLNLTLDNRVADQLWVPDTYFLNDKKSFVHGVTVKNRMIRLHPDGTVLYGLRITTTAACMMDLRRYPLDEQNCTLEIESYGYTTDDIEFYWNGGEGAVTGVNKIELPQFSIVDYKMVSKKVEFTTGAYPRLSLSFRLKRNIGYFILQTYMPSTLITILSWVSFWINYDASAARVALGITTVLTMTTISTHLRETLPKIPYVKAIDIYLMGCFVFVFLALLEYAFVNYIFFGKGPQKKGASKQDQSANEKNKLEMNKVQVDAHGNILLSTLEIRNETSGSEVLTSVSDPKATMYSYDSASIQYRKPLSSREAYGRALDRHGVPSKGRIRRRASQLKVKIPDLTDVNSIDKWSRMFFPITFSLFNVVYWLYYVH", "sequence (P18507 40-467 isoform P18507-1 partner limits assumed)": "as the sequence (P18507 40-467 isoform P18507-1 partner limits assumed) above", "test": "Two-microelectrode voltage clamp: IGABA enhancement in Xenopus laevis oocytes", "settings": "replacing β2/3 by β1; Emax and EC50 not determined"}}}
{"molecule": "C/C(=C/C#N)c1ccc(Cl)cc1Cl", "note": "[Compound Z-2, (2Z)-3-(2,4-dichlorophenyl)but-2-enenitrile]", "values": [{"measurement": "seizure threshold", "setting": "[1]; 0.1 mg/kg body weight", "value": "48.5 ± 2.3", "unit": "mg/kg PTZ"}, {"measurement": "seizure threshold", "setting": "[1]; 0.3 mg/kg body weight", "value": "52.3±1.6", "unit": "mg/kg PTZ"}, {"measurement": "amplitude of mIPSCs", "setting": "[2]", "value": "no effect"}, {"measurement": "frequency of mIPSCs", "setting": "[2]", "value": "no effect"}, {"measurement": "holding currents", "setting": "[2]", "value": "shifted towards more negative values"}, {"measurement": "decay of mIPSCS (normalized)", "setting": "[2]; compared to control, n=5", "value": "213.8 ± 41.0", "unit": "%"}, {"measurement": "EC50", "setting": "[3]", "value": "9.9 ± 2.5", "unit": "µM"}, {"measurement": "Emax", "setting": "[3]; second β2/3 channel of Fig. 1B, printed as α1β3γ2S, n = 3, no unit at this value", "value": "1804.9 ± 153.0", "unit": "%"}, {"measurement": "sensitivity of the resulting GABAA channels", "setting": "[4]", "value": "drastically reduced the sensitivity"}]}
